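Grown in 96-well plates, cells were treated for 48 hours with each compound at five concentrations. Insufficient inhibition: endpoint recorded as highest concentration tested. GI50: concentration for 50% inhibition of growth. TGI is the concentration that stops growth completely.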
Key:
Assay in all cases: NCI tumour cell line growth inhibition, 48 h; in the data active means GI50 below about 0.43 µM; inactive means the rest
HCT-15 colon = system: HCT-15 colon
HT29 colon = system: HT29 colon
OVCAR-4 ovarian = system: OVCAR-4 ovarian
SF-295 CNS = system: SF-295 CNS
SK-MEL-28 melanoma = system: SK-MEL-28 melanoma
SNB-19 CNS = system: SNB-19 CNS
SW-620 colon = system: SW-620 colon
TK-10 renal = system: TK-10 renal
U251 CNS = system: U251 CNS
UACC-257 melanoma = system: UACC-257 melanoma

OCC1NC(CO)C(O)C1O (stereo not given)
> 100 µM: TGI (HCT-15 colon) | TGI (HT29 colon) | TGI (OVCAR-4 ovarian) | TGI (SF-295 CNS) | TGI (SK-MEL-28 melanoma) | TGI (SNB-19 CNS) | TGI (SW-620 colon) | TGI (TK-10 renal) | TGI (U251 CNS) | TGI (UACC-257 melanoma)

Nc1ccc(C2(c3ccc(N)cc3)C3CC4CC(C3)CC2C4)cc1
20.3 µM: TGI (SF-295 CNS)
36.2 µM: TGI (UACC-257 melanoma)
32.5 µM: TGI (OVCAR-4 ovarian)
> 100 µM: TGI (SK-MEL-28 melanoma)
37 µM: TGI (U251 CNS)
37.2 µM: TGI (HCT-15 colon)
28.8 µM: TGI (SW-620 colon)
32.2 µM: TGI (TK-10 renal)
26.3 µM: TGI (HT29 colon)
33.3 µM: TGI (SNB-19 CNS)

O=Nn1c2ccccc2c2ccccc21
> 100 µM: TGI (HCT-15 colon) | TGI (HT29 colon) | TGI (OVCAR-4 ovarian) | TGI (SF-295 CNS) | TGI (SK-MEL-28 melanoma) | TGI (SNB-19 CNS) | TGI (SW-620 colon) | TGI (TK-10 renal) | TGI (U251 CNS) | TGI (UACC-257 melanoma)

CC(C)N(CCNc1nc(C(Cl)(Cl)Cl)nc2cc(Cl)ccc12)C(C)C
4.78 µM: TGI (SNB-19 CNS)
3.49 µM: TGI (UACC-257 melanoma)
3.66 µM: TGI (SF-295 CNS)
1.85 µM: TGI (HT29 colon)
3.38 µM: TGI (SK-MEL-28 melanoma)
2.48 µM: TGI (HCT-15 colon)
2.96 µM: TGI (OVCAR-4 ovarian)
3.09 µM: TGI (SW-620 colon)
2.53 µM: TGI (U251 CNS)
2.88 µM: TGI (TK-10 renal)
inactive: GI50 (HCT-15 colon) 1.12 µM | GI50 (HT29 colon) 0.523 µM | GI50 (OVCAR-4 ovarian) 1.35 µM | GI50 (SF-295 CNS) 1.73 µM | GI50 (SK-MEL-28 melanoma) 1.8 µM | GI50 (SNB-19 CNS) 1.9 µM | GI50 (SW-620 colon) 1.48 µM | GI50 (TK-10 renal) 1.46 µM | GI50 (U251 CNS) 1.21 µM | GI50 (UACC-257 melanoma) 1.93 µM

Cc1ccc(S(=O)(=O)NCCCSCCN)cc1
> 100 µM: TGI (HCT-15 colon) | TGI (HT29 colon) | TGI (OVCAR-4 ovarian) | TGI (SF-295 CNS) | TGI (SK-MEL-28 melanoma) | TGI (SNB-19 CNS) | TGI (SW-620 colon) | TGI (TK-10 renal) | TGI (U251 CNS) | TGI (UACC-257 melanoma)

COc1ncnc2c(Cl)c(C(O)c3ccccc3)c(Cl)cc12 (stereo not given)
> 100 µM: TGI (HCT-15 colon) | TGI (HT29 colon) | TGI (OVCAR-4 ovarian) | TGI (SK-MEL-28 melanoma) | TGI (U251 CNS) | TGI (UACC-257 melanoma)
92.6 µM: TGI (SW-620 colon)
68.2 µM: TGI (SF-295 CNS)
63.4 µM: TGI (TK-10 renal)
79.9 µM: TGI (SNB-19 CNS)

Fc1ccc(C2CC(c3cccc(Nc4ccncc4)c3)=NN2c2ccccc2)cc1 (stereo not given)
3.04 µM: TGI (SNB-19 CNS)
4.31 µM: TGI (UACC-257 melanoma)
3.49 µM: TGI (HCT-15 colon)
3.07 µM: TGI (OVCAR-4 ovarian)
3.35 µM: TGI (SK-MEL-28 melanoma)
5.09 µM: TGI (HT29 colon)
3.75 µM: TGI (TK-10 renal)
3.16 µM: TGI (SF-295 CNS)
inactive: GI50 (HCT-15 colon) 1.68 µM | GI50 (HT29 colon) 2.13 µM | GI50 (OVCAR-4 ovarian) 1.61 µM | GI50 (SF-295 CNS) 1.74 µM | GI50 (SK-MEL-28 melanoma) 1.76 µM | GI50 (SNB-19 CNS) 1.61 µM | GI50 (SW-620 colon) 1.69 µM | GI50 (TK-10 renal) 1.99 µM | GI50 (U251 CNS) 1.84 µM | GI50 (UACC-257 melanoma) 2.09 µM
3.64 µM: TGI (U251 CNS)
3.21 µM: TGI (SW-620 colon)

O=C(Nc1ccc(C(F)(F)F)cc1[N+](=O)[O-])C(=O)Nn1c(=S)[nH]c2ccccc2c1=O
> 100 µM: TGI (HCT-15 colon) | TGI (HT29 colon) | TGI (OVCAR-4 ovarian) | TGI (SF-295 CNS) | TGI (SK-MEL-28 melanoma) | TGI (SNB-19 CNS) | TGI (SW-620 colon) | TGI (TK-10 renal) | TGI (U251 CNS) | TGI (UACC-257 melanoma)

CCOP(=O)(OCC)C(Cc1c[nH]c2ccccc12)C(=O)O (stereo not given)
> 100 µM: TGI (HCT-15 colon) | TGI (HT29 colon) | TGI (OVCAR-4 ovarian) | TGI (SF-295 CNS) | TGI (SK-MEL-28 melanoma) | TGI (SNB-19 CNS) | TGI (SW-620 colon) | TGI (TK-10 renal) | TGI (U251 CNS) | TGI (UACC-257 melanoma)

CC=C/C=C/[C@@H]1O[C@](O)([C@H](CC)C(=O)NC/C=C/C=C(\C)[C@@H](OC)[C@@H](C)[C@@H]2O[C@H](/C=C/C=C/C=C(\C)C(=O)c3c(O)cc[nH]c3=O)[C@H](O)[C@@H]2O)[C@H](O)[C@H](O)C1(C)C
> 100 µM: TGI (HCT-15 colon) | TGI (HT29 colon) | TGI (OVCAR-4 ovarian) | TGI (SF-295 CNS) | TGI (SK-MEL-28 melanoma) | TGI (SNB-19 CNS) | TGI (SW-620 colon) | TGI (TK-10 renal) | TGI (U251 CNS) | TGI (UACC-257 melanoma)

COc1ccc(/C=C/c2cc(O)cc(OC3OC(CO)C(O)C(O)C3O)c2)cc1O (stereo not given)
> 100 µM: TGI (HCT-15 colon) | TGI (HT29 colon) | TGI (OVCAR-4 ovarian) | TGI (SF-295 CNS) | TGI (SK-MEL-28 melanoma) | TGI (SNB-19 CNS) | TGI (SW-620 colon) | TGI (TK-10 renal) | TGI (U251 CNS) | TGI (UACC-257 melanoma)

COc1ccc(CCn2ccc(C)n2)c(OC)c1
> 100 µM: TGI (HCT-15 colon) | TGI (HT29 colon) | TGI (OVCAR-4 ovarian) | TGI (SF-295 CNS) | TGI (SK-MEL-28 melanoma) | TGI (SNB-19 CNS) | TGI (SW-620 colon) | TGI (TK-10 renal) | TGI (U251 CNS) | TGI (UACC-257 melanoma)

Source: PubChem BioAssay (NCI)
